According to paper PMC9863266, “Preclinical Studies and Drug Combination of Low-Cost Molecules for Chagas Disease” (Pharmaceuticals, 2022):
Several values for one entry are separate records, joined by “and”; a condition that tells them apart may be missing. Equal values may be shown once.

Key:
[1] = tested on: Salmonella typhimurium strains TA98, T100, T102, TA1535, and TA1537; test: Ames test (mutagenicity); type: cell-based; conditions: for Ames test TA98 revertant colonies / Ames test TA100 revertant colonies / Ames test TA102 revertant colonies / Ames test TA1535 revertant colonies / Ames test TA1537 revertant colonies: absence of metabolic activation
Procedure: The mutagenic capacity of the compounds was determined from a 2 × 10^9 CFU/mL culture in Oxoid No. 2 medium in the exponential phase of Salmonella typhimurium strains TA98, T100, T102, TA1535, and TA1537 (hisD3052, histidine-dependent). Five serial dilutions to the third in DMSO were evaluated, starting from the maximum non-toxic dose estimated from the results of the toxicity test carried out initially. Positive controls were performed with 4-nitro-o-phenylenediamine (20 µg/plate) in the case of mutagenicity without activation. DMSO (50 µL/plate) and phenotype control (resistance to ampicillin, tetracycline, crystal violet, and sensitive UV light) were used as negative control. Compounds were incubated for 1 h at 37 °C in 2 mL of an agar solution containing 200 µL of histidine solution [(0.5 mM)/biotin (0.5 mM)]. It was then grown on glucose minimal agar for 48 h at 37 °C. When the effect of the metabolization on the compounds was studied, the S9 fraction (Gibco™, Thermo Fisher Scientific, Grand Island, NY, US) […] and expressed as the mean of duplicates ± standard deviation. The product was considered mutagenic when the number of revertant colonies doubled that of the negative control in at least two consecutive doses. The preparation of the bacterial suspension, the dissolution of the S9 fraction, the product, and the first part of the test (until the tubes with all the solutions were transferred to the stove for incubation) was carried out under sterile conditions, in a laboratory laminar flow and with sterile material (autoclave at 121 °C for 20 min or maintaining the manufacturer’s sterility). The addition of the histidine/biotin solution and the seeding of the plates were carried out under an upward air current generated by a burner.

[2] = tested on: epimastigote form of T. cruzi, Tulahuen 2 strain; test: Mechanism of death by flow cytometry, AV/IP labeling; type: cell-based; conditions: 20 × IC50
Procedure: Parasites were immediately analyzed on an Accuri C6 flow cytometer (BD Bioscience, Franklin Lakes, New Jersey, U.S.). […] Ten thousand events were analyzed for each of the two independent experiments. Data were analyzed using BD CSampler software (BD Bioscience). Untreated parasites were used as a control. For the positive control of apoptosis and necrosis, the parasites were treated with hydrogen peroxide (H2O2) 50 µM and 100 µM for 2.5 h, respectively. These single-spot controls were used to calculate color compensation for flow cytometry.

zebrafish embryos = tested on: zebrafish embryos
Procedure: 1-Phenyl-2-thiourea (0.003%) was added to system water to inhibit melanogenesis in embryos destined for microscopic imaging. The eggs were collected, and the unfertilized ones were discarded. […] At this stage, the membrane that protects the embryo (chorion) was manually removed. This was completed on a 1 % agarose plate and medium for embryos. Two 96-well plates with a curved bottom were prepared. […] One embryo was placed per […], and it was verified that it had not suffered any injury when it was transferred. After preparing the plates, the embryos were evaluated. For this, they were placed in a humid chamber to avoid the evaporation of the compounds and were incubated at 28 °C. At 24 h, the first observation was made and half of the medium in each well was replaced to ensure that the concentrations remained constant during the 96 h of exposure. To do this, 100 µL of medium was removed from each well and replaced with 100 µL of fresh medium. […] In addition, any other type of abnormality that may indicate teratogenicity was recorded. The same was performed every 24 h until 96 h of exposure where the test was considered finished. The embryos were sacrificed in 70% ethanol. […] The curve obtained was fitted to a sigmoid using the OriginLab 8.5 program.

[3] = tested on: epimastigote form of T. cruzi, Tulahuen 2 strain; test: Viability by flow cytometry, CA-AM/IP labeling; type: cell-based; conditions: 20 × IC50
Procedure: Additionally, we evaluated the viability of treated parasites by flow cytometry analysis after incubation with methylated acetoxycalcein (CA-AM) and propidium iodide (IP). […] Since the methodology used to determine the IC50 is based on 5 days of incubation, doses 20 times higher were used to analyze cell viability in shorter times. Similarly, these compounds’ concentrations were used to determine the death mechanism involved at the aforementioned times.
Viability studies of parasites by flow cytometry: The feasibility studies were carried out by evaluating the esterase activity of the parasites using Acetoxymethylated Calcein (CA-AM) and IP (Thermo Fisher Scientific). […] Fluorescence intensity for 10,000 events was acquired from two independent experiments and data were analyzed using BD CSampler software (BD Bioscience).

## O=C(/C=C/C=C/c1ccco1)/C=C/C=C/c1ccco1 [Compound 793]
[1]
  Ames test (mutagenicity): NO
[1]; 6 μg/plate
  Ames test TA98 revertant colonies: 5±2
  Ames test TA100 revertant colonies: 89±3
  Ames test TA102 revertant colonies: 171±1
  Ames test TA1535 revertant colonies: 8±1
  Ames test TA1537 revertant colonies: 16 ± 1
[1]; 18 μg/plate
  Ames test TA98 revertant colonies: 9±3
  Ames test TA100 revertant colonies: 76±5
  Ames test TA102 revertant colonies: 176±1
  Ames test TA1535 revertant colonies: 12±1
  Ames test TA1537 revertant colonies: 18±1
[1]; 55 μg/plate
  Ames test TA98 revertant colonies: 3±1
  Ames test TA100 revertant colonies: 74±6
  Ames test TA102 revertant colonies: 194±3
  Ames test TA1535 revertant colonies: 14± 3
  Ames test TA1537 revertant colonies: 24± 4
[1]; 166 μg/plate
  Ames test TA98 revertant colonies: 3 ± 1
  Ames test TA100 revertant colonies: 58±3
  Ames test TA102 revertant colonies: 203±2
  Ames test TA1535 revertant colonies: 18±1
  Ames test TA1537 revertant colonies: 28± 3
[1]; 500 μg/plate
  Ames test TA98 revertant colonies: 5±1
  Ames test TA100 revertant colonies: 69±1
  Ames test TA102 revertant colonies: 222±6
  Ames test TA1535 revertant colonies: 20±1
  Ames test TA1537 revertant colonies: 30 ± 3
[2]; 6 h
  AV/IP labeling Q1-UR (double AV+/IP+ labeling): 74%
[2]; 24 h
  AV/IP labeling Q1-UR (double AV+/IP+ labeling): 84%
Zebrafish embryos; 96 h exposure
  Teratogenicity in zebrafish (LD50 ± SD): 22 µM and 22 ± 5 µM
Zebrafish embryos; zebrafish, in vivo
  Selectivity: zebrafish LD50 versus IC50 in the parasite: four
[3]; 6 h
  CA-AM/IP labeling Q1-UR (CA-AM+/IP+ double-labeled parasites): 82%
[3]; 24 h
  CA-AM/IP labeling Q1-UR (CA-AM+/IP+ double-labeled parasites): 98%
